According to patent US12544373B2, “Treatment of cancer, inflammatory diseases and autoimmune diseases” (Usher III Initiative, Inc., priority 2020, dated 2026):
Several values for one entry are separate records, joined by “and”; a condition that tells them apart may be missing. Equal values may be shown once. Read-outs that look alike come from different tables or passages of the source.

How the values were obtained:
[1] = system: 10 human tumor cell lines; test: CellTiter-Blue 2D monolayer assay (Example 1), whole panel; assay type: cell-based
Procedure: (§1) Compound 85 was assessed in 10 human tumor cell lines (see Table 3) for anti-cancer activity in vitro using a CellTiter-Blue® based 2D monolayer assay.
(§2) CellTiter-Blue® Cell Viability Assay: Tumor cells were grown at 37° C. in a humidified atmosphere with 5% CO2 in RPMI medium, supplemented with 10% (v/v) fetal calf serum and 50 μg/ml gentamicin (140 μl/well). Cultures were incubated at 37° C. and 5% CO2 in a humidified atmosphere. After 24 hours, 10 μl of Compound 85 was added, and left on the cells for another 72 hours (incubation period). Compound 85 was tested at 5 concentrations (0.003 μM, 0.03 μM, 0.3 μM, 3 μM, and 30 μM) and serially diluted in DMSO, mixed with cell culture medium, and added to the assay plates by using a Tecan Freedom EVO 200 robotic platform. The DMSO concentration was kept constant at 0.3% yip across the assay plate. Every 96 well plate included six DMSO-treated control wells and Compound 85-treated wells in duplicate at 5 concentrations. Viability of cells was quantified using the CellTiter-Blue® cell viability assay (Promega G8081). After incubation of cells, the CellTiter-Blue® reagent was brought to ambient temperature. Next, 20 μl of CellTiter-Blue® reagent were added to each well. After incubation tier up to 4 hours, fluorescence (FU) was measured using the EnSpire® multimode plate reader (Perkin Elmer) ([…]).
(§3) Data Evaluation: Sigmoidal concentration-response curves were fitted to the data points (test-versus-control; T/C values) obtained for each tumor model using 4 parameter non-linear curve fit (Charles River DRS Datawarehouse Software). Drug effects are expressed in terms of the percentage of the fluorescence signal, obtained by comparison of the mean signal in the treated wells with the mean signal of the untreated controls (T/C-value [%]) (Table 4). IC50 and IC70 values were reported as relative and absolute IC50 and IC70 values (Table 5). The absolute IC50 and IC70 values reflect the concentration of Compound 85 that achieves T/C=50% and T/C=30%, respectively. The relative IC50 value is the concentration of Compound 85 that gives a response half way between the top and bottom plateau of the sigmoidal concentration-response curve (inflection point of the curve).

CXF HCC-2998 = test: CellTiter-Blue 2D monolayer assay (Example 1), colon; assay type: cell-based, human; details: for Test/Control (%): 72 h
Procedure: as §1, §2, §3

CXF LS 174T = test: as above; assay type: cell-based, human; details: for Test/Control (%): 72 h
Procedure: as §1, §2, §3

OVXF A2780 = test: CellTiter-Blue 2D monolayer assay (Example 1), ovarian; assay type: cell-based, human; details: for Test/Control (%): 72 h
Procedure: as §1, §2, §3

OVXF 899 = test: as above; assay type: cell-based, human; details: for Test/Control (%): 72 h
Procedure: as §1, §2, §3

MEXF 1737 = test: CellTiter-Blue Cell Viability Assay (Example 2), melanoma; assay type: cell-based, human; details: for T/C %: 72 h
Description: The CellTiter-Blue® Cell Viability Assay was used to assess the viability of cells from various cancer cell lines, in the presence or absence of Compound 85 (at different concentrations). This assay provides a homogeneous, fluorometric method for estimating the number of viable cells present in multi-well plates. Viable cells retain the ability to reduce resazurin to resorufin, which is highly fluorescent. […] The fluorescence produced is proportional to the number of viable cells. There is a linear relationship between cell number and fluorescence.
Cancer cells (see Table 6) were harvested from exponential phase cultures, counted and plated in 96 well flat-bottom microtiter plates, at a cell density 6,000-20,000 cells/well, depending on the cell line's growth rate. The culture medium was supplemented with 10% (v/v) foetal calf serum and 50 μg/mL gentamicin (140 μL/well). Cultures were incubated at 37° C. and 5% CO2 in a humidified atmosphere.
Compound 85 was serially diluted in DMSO, and five Compound 85 concentrations in half-log increments were used: 0.03 μM, 0.09 μM, 0.30 μM, 1.0 μM, and 3.0 μM. After 24 h, 10 μL of Compound 85 (dissolved in DMSO) or control (DMSO) medium were added, in duplicates, and left on the cells for another 72 h. Compound 85 solutions were added to the assay plates using a Tecan Freedom EVO 200 robotic platform. The DMSO concentration was kept constant at 0.3% v/v across the assay plate.
After incubation of up to 72 hours, fluorescence (FU) was measured using the EnSpire® multimode plate reader (Perkin Elmer) (excitation λ=570 nm, emission λ=600 nm).
Cancer cell lines used: Compound 85's anti-cancer effect was tested in 20 human cancer-cell lines representing nine cancer types (Table 6).
The percentage of viable cells in the presence of Compound 85 (Test condition, T), at different concentrations, are presented in Table 7 and expressed as a percentage of the number of viable cells in the presence of DMSO without Compound 85 (Control condition, C).
The relative IC50 is determined as the Compound 85 concentration giving a response halfway between the maximum cell viability signal (i.e., a 100% cell viability, no Compound 85 response) and the minimal viability signal (i.e. maximum cell viability inhibition achieved by Compound 85), in a sigmoidal concentration-effect curve.
The absolute IC50 is determined as the concentration that is associated with a T/C ratio of 50%.

[2] = geometric mean over 10 cell lines

CC(C)(O)Cn1nc(-c2ccccc2)c2c(Cl)c(-c3ccccc3)nnc21 [Compound 85]
inhibition of the tumor cell growth ([1]; all cell lines of Table 3): concentration-dependent inhibition
Geometric mean Abs. IC70 [1, 2]: 1258 nM
Geometric mean Rel. IC70 [1, 2]: 1226 nM
IC50 ([1]; geometric mean over 10 cell lines, read-out: Geometric mean Abs. IC50): 950 nM and 948 nM
IC50 ([1]; geometric mean over 10 cell lines, read-out: Geometric mean Rel. IC50): 926 nM
Rel. IC70 (CXF HCC-2998): 1630 nM
Test/Control (%) (CXF HCC-2998; 0.003 μM): 97%
Test/Control (%) (CXF HCC-2998; 0.03 μM): 100%
Test/Control (%) (CXF HCC-2998; 0.3 μM): 90%
Test/Control (%) (CXF HCC-2998; 3 μM): 13%
Test/Control (%) (CXF HCC-2998; 30 μM): 1%
Abs. IC70 (CXF HCC-2998; T/C=30%): 1628 nM
IC50 (CXF HCC-2998; T/C=50%, read-out: Abs. IC50): 1020 nM
Bot. (%) (CXF HCC-2998; bottom plateau of curve): 1%
IC50 (CXF HCC-2998; read-out: Rel. IC50): 1030 nM
Top (%) (CXF HCC-2998; top plateau of curve): 99%
Rel. IC70 (CXF LS 174T): 328 nM
Test/Control (%) (CXF LS 174T; 0.003 μM): 103%
Test/Control (%) (CXF LS 174T; 0.03 μM): 101%
Test/Control (%) (CXF LS 174T; 0.3 μM): 35%
Test/Control (%) (CXF LS 174T; 3 μM): 4%
Test/Control (%) (CXF LS 174T; 30 μM): 0%
Abs. IC70 (CXF LS 174T; T/C=30%): 346 nM
IC50 (CXF LS 174T; T/C=50%, read-out: Abs. IC50): 215 nM
Bot. (%) (CXF LS 174T; bottom plateau of curve): 1%
IC50 (CXF LS 174T; read-out: Rel. IC50): 204 nM
Top (%) (CXF LS 174T; top plateau of curve): 103%
Rel. IC70 (OVXF A2780): 1872 nM
Test/Control (%) (OVXF A2780; 0.003 μM): 101%
Test/Control (%) (OVXF A2780; 0.03 μM): 94%
Test/Control (%) (OVXF A2780; 0.3 μM): 101%
Test/Control (%) (OVXF A2780; 3 μM): 1%
Test/Control (%) (OVXF A2780; 30 μM): 0%
Abs. IC70 (OVXF A2780; T/C=30%): 1868 nM
IC50 (OVXF A2780; T/C=50%, read-out: Abs. IC50): 1690 nM
Bot. (%) (OVXF A2780; bottom plateau of curve): 0%
IC50 (OVXF A2780; read-out: Rel. IC50): 1700 nM
Top (%) (OVXF A2780; top plateau of curve): 99%
Rel. IC70 (OVXF 899): 739 nM
Test/Control (%) (OVXF 899; 0.003 μM): 108%
Test/Control (%) (OVXF 899; 0.03 μM): 106%
Test/Control (%) (OVXF 899; 0.3 μM): 86%
Test/Control (%) (OVXF 899; 3 μM): 2%
Test/Control (%) (OVXF 899; 30 μM): 1%
Abs. IC70 (OVXF 899; T/C=30%): 775 nM
IC50 (OVXF 899; T/C=50%, read-out: Abs. IC50): 553 nM
Bot. (%) (OVXF 899; bottom plateau of curve): 1%
IC50 (OVXF 899; read-out: Rel. IC50): 522 nM
Top (%) (OVXF 899; top plateau of curve): 107%
Absolute IC70 (MEXF 1737): 925 nM
Relative IC70 (MEXF 1737): 864 nM
T/C % (MEXF 1737; 0.03 μM): 99%
T/C % (MEXF 1737; 0.095 μM): 97%
T/C % (MEXF 1737; 0.3 μM): 101%
T/C % (MEXF 1737; 0.95 μM): 27%
T/C % (MEXF 1737; 3.0 μM): 16%
IC50 (MEXF 1737; read-out: Absolute IC50): 826 nM
IC50 (MEXF 1737; read-out: Relative IC50): 799 nM
